These results are taken from the supplement of paper PMC10307832.

Test in all cases: relative viability (nuclei count vs DMSO), 5 days (fraction); higher = more cells survive
Compound in the test “AT9283 + Olaparib”: O=C(Nc1c[nH]nc1-c1nc2ccc(CN3CCOCC3)cc2[nH]1)NC1CC1 [AT9283] + O=C(c1cc(Cc2n[nH]c(=O)c3ccccc23)ccc1F)N1CCN(C(=O)C2CC2)CC1 [Olaparib] (partner 8 µM)
The essentials: (§1)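 Lung cancer cell lines were pin-tool dosed in 1536-well plates on the day after seeding, with either a lone drug or a fixed anchor-drug dose plus five library-drug doses (not always all listed) in √10 steps. Nuclei were counted on 4× images after 5 days. Relative viability is the ratio of treated-well to vehicle-well nuclei counts, with each value a median of duplicate plates.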

Compound in the test “AT9283 + Navitoclax”: O=C(Nc1c[nH]nc1-c1nc2ccc(CN3CCOCC3)cc2[nH]1)NC1CC1 [AT9283] + CC1(C)CCC(c2ccc(Cl)cc2)=C(CN2CCN(c3ccc(C(=O)NS(=O)(=O)c4ccc(N[C@H](CCN5CCOCC5)CSc5ccccc5)c(S(=O)(=O)C(F)(F)F)c4)cc3)CC2)C1 [Navitoclax] (partner 0.5 µM)
The method, boiled down:
as §1

Compound in the test “AT9283 + Phenformin”: O=C(Nc1c[nH]nc1-c1nc2ccc(CN3CCOCC3)cc2[nH]1)NC1CC1 [AT9283] + N=C(N)NC(=N)NCCc1ccccc1 [Phenformin] (partner 250 µM)
The essentials: as §1

Compound in the test “AT9283 + Bortezomib”: O=C(Nc1c[nH]nc1-c1nc2ccc(CN3CCOCC3)cc2[nH]1)NC1CC1 [AT9283] + CC(C)C[C@H](NC(=O)[C@H](Cc1ccccc1)NC(=O)c1cnccn1)B(O)O [Bortezomib] (partner 0.002 µM)
The essentials:
as §1

Compound in the test “Erlotinib + AZD7762”: C#Cc1cccc(Nc2ncnc3cc(OCCOC)c(OCCOC)cc23)c1 [Erlotinib] + NC(=O)Nc1cc(-c2cccc(F)c2)sc1C(=O)N[C@H]1CCCNC1 [AZD7762] (partner 0.2 µM)
The method, boiled down: as §1

For NCI-H441, the relative viability in the test with AT9283 + Olaparib (first compound 0.003 µM) came out at 0.557; with AT9283 + Olaparib (first compound 0.03 µM), 0.504; with AT9283 + Olaparib (first compound 0.09487 µM), 0.417; with AT9283 + Olaparib (first compound 0.3 µM), 0.319; in the test with AT9283 + Navitoclax (first compound 0.003 µM), 0.432; in the test with AT9283 + Navitoclax (first compound 0.03 µM) it was 0.433. Besides, the relative viability amounted to 0.255 with AT9283 + Navitoclax (first compound 0.09487 µM); 0.204 with AT9283 + Navitoclax (first compound 0.3 µM); 0.858 in the test with AT9283 + Phenformin (first compound 0.003 µM); 0.853 in the test with AT9283 + Phenformin (first compound 0.03 µM); 0.286 with AT9283 + Phenformin (first compound 0.09487 µM); 0.244 with AT9283 + Phenformin (first compound 0.3 µM). For the same cell line, the relative viability came to 0.406 in the test with AT9283 + Bortezomib (first compound 0.003 µM); 0.442 in the test with AT9283 + Bortezomib (first compound 0.03 µM); 0.536 in the test with AT9283 + Bortezomib (first compound 0.09487 µM); 0.381 with AT9283 + Bortezomib (first compound 0.3 µM); 1.2 with Erlotinib + AZD7762 (first compound 0.02 µM); 1.06 with Erlotinib + AZD7762 (first compound 0.2 µM). Further, the relative viability stood at 1.1 with Erlotinib + AZD7762 (first compound 0.6325 µM) and 1.11 with Erlotinib + AZD7762 (first compound 2 µM).
